This is an account of results in paper PMC11148080, “Ru(II)-based complexes containing 2-thiouracil derivatives suppress liver cancer stem cells by targeting NF-κB and Akt/mTOR signaling” (Cell Death Discovery, 2024).

Data set [1] is described as follows: Toxicity parameters in xenografted mice. The settings on record: 2 or 4 mg/kg i.p., 21 days; for changes in body weight or organs (liver, kidney, lung, heart): P > 0.05; for histopathological changes in the hearts: data not shown. The format is in vivo, C.B-17 SCID mice. An excerpt:
All animals were weighed at the start and end of the experiment to assess toxicological aspects. The animals were continuously examined for anomalies during the trial. The livers, kidneys, lungs, and hearts were removed and weighed before being preserved in 4% formaldehyde, dehydrated in a graded alcohol series, cleaned in xylene, and embedded in paraffin wax. The tissue was sliced into 5 μm thick slices, stained with hematoxylin and/or periodic acid-Schiff (liver and kidney), and histologically evaluated via optical microscopy.

Data set [2] relates to HepG2 cells. The data set can be described thus: p62/SQSTM1 expression (autophagy). Format: cell-based, human. The settings on record: HepG2, 24 h; 8 μM complex 1, 6 μM complex 2. As to the method:
(§1) To stain intracellular proteins, the cells were harvested and resuspended in 0.5-1 mL of 4% formaldehyde for 10 min at 37 °C. The tube was then placed on ice for 1 min, after which the cells were prechilled and permeabilized using a sequence of 100% (30 min) to 90% (30 min) methanol with gentle mixing. After washing with incubation buffer (0.5% bovine serum albumin in PBS), primary antibodies were added and incubated for 1 h at room temperature. Finally, the cells were washed with PBS, and flow cytometry was used to measure cell fluorescence.
The cells were grown on coverslips in 24-well plates and exposed to the drugs for 24 h. The cells were then washed twice with saline solution, permeabilized with 0.5% Triton X-100, treated with RNase (10 μg/mL), and incubated overnight with a primary fluorochrome-conjugated antibody (for antibody details, see Table S5). The next day, the cells were washed with saline solution and mounted using Fluoromount-G with DAPI (Invitrogen, Thermo Fisher Scientific). The cells were examined using a Leica TCS SP8 confocal microscope (Leica Microsystems, Wetzlar, HE, Germany).

The test system of data set [3] is HepG2 cells. The data set can be described thus: NF-κB and Akt/mTOR signaling protein levels by flow cytometry. Format: cell-based, human. The settings on record: HepG2, 24 h; for level of Akt1 / level of phospho-4EBP1 (T36/T45) / level of phospho-Akt (S473) / level of phospho-Akt (T308) / level of phospho-PI3K p85/p55 (T458/T199) / level of phospho-elF4E (S209) / level of phospho-mTOR (S2448): 8 μM complex 1, 6 μM complex 2. The procedure: as §1
(§2) For all flow cytometry analyses, cellular fluorescence was measured using a BD LSRFortessa cytometer, BD FACSDiva software (BD Biosciences) and FlowJo software 10 (FlowJo LLC; Ashland, OR, USA). A minimum of 10,000 events were obtained per sample for intracellular staining, and a minimum of 30,000 events per sample were acquired for cell surface protein staining. Doublets were removed using FSC-A vs FCS-H and SCC-A vs SCC-H. Cellular debris was excluded from the analysis.

The subject of data set [4] is HepG2 cells. The data set is described as follows: Wound healing assay. The settings on record: 72 h; 0.5 μM complex 1, 0.3 μM complex 2 (noncytotoxic). Format: cell-based, human. As to the method: Wound healing assays were performed as previously described. The cells were grown to 80–90% confluency in 12-well plates, and a wound was formed by dragging a plastic pipette tip over the cell surface. The remaining cells were washed three times with saline solution to eliminate cell debris before being cultured in serum-free media and treated with drugs. After 0 and 72 h of incubation, the migrating cells in front of the wound were photographed using an optical microscope (Nikon, TS 100). The wound area was calculated using ImageJ software from the National Institutes of Health (NIH, USA).

Another data set relates to WT SV40 MEF. The data set is described as follows: Alamar Blue survival curves. The format is cell-based, mouse. The settings on record: 72 h. As to the method:
(§3) A Quantification of mitochondrial membrane depolarization in HepG2 cells after 24 h of incubation with complex 1 or 2, as determined by flow cytometry. B and C Quantification of PARP (Asp214) cleavage in HepG2 cells after 24 h of incubation with complex 1 (8 μM) or 2 (6 μM), as determined by flow cytometric analysis. MFI: Mean fluorescence intensity. D Survival curves of WT SV40 MEFs and BAD KO SV40 MEFs upon treatment with complexes 1 and 2 and 5-fluorouracil (5-FU, used as a positive control). The curves were obtained from at least three biological replicates carried out in duplicate using the Alamar Blue assay after 72 h of incubation. E DNA fragmentation (sub-G0/G1 cells) and cell cycle distribution (G0/G1, S and G2/M phases) of WT SV40 MEFs and BAD KO SV40 MEFs after 48 h of incubation with complexes 1 (10 μM) and 2 (10 μM) or 5-FU (40 μM). The vehicle (0.2% DMSO) was used as a negative control (CTL). The data are expressed as the mean ± S.E.M. of three biological replicates carried out in duplicate. *P < 0.05 compared to CTL by one-way analysis of variance (ANOVA) followed by Dunnett’s multiple comparisons test.
(§4) The Alamar Blue assay was used to measure cell viability, as previously described. Adherent cells were seeded in 96-well plates at a density of 7 × 10^3 cells per well, and suspended cells were seeded at 3 × 10^4 cells per well. Drugs were added to each well after overnight incubation for adherent cells or immediately after seeding for suspension cells, and incubation continued for an additional 72 h. […] Four hours (for cell lines) or 24 h (for primary cultures) before the end of incubation, 20 μL of resazurin (30 μM) (Sigma‒Aldrich Co. St. Louis, MO, USA) was added to each well. The absorbance at 570 and 600 nm was measured using a SpectraMax 190 microplate reader (Molecular Devices, Sunnyvale, CA, USA).
(In general: Alamar Blue is a resazurin reagent that responds to reducing activity.)

The subject of another data set is BAD KO SV40 MEF. The data set can be described thus: Alamar Blue survival curves. The format is cell-based, mouse. The settings on record: for involvement of proapoptotic protein BAD in cell death: BAD KO SV40 MEF vs WT SV40 MEF; for IC50: BAD KO SV40 MEF, 72 h. The procedure:
as §3, §4

The test system of data set [5] is HepG2 cells. The data set is described as follows: Light scattering (FSC/SSC) by flow cytometry. Format: cell-based, human. The settings on record: 24, 48, 72 h.
Excerpt: Light scattering characteristics measured by flow cytometry were used to analyze cellular parameters such as size and complexity/granularity in HepG2 cells treated with complexes 1 and 2 (Fig. S6A–S6F). Forward light scattering (FSC) was employed as a cell size metric in this experiment, while side scattering (SSC) was used to determine cell complexity/granularity. […] Both morphological changes are associated with cellular apoptosis, corroborating the findings observed in cells stained with May-Grunwald-Giemsa.
as §2
(A flow cytometer gives signals particle by particle.)

The test system of data set [6] is HepG2 cells. The data set is described as follows: Transwell migration assay. The format is cell-based, human. The settings on record: same concentrations (0.5 μM complex 1, 0.3 μM complex 2), 24 h. As to the method: Transwell plates were used for the cell migration assay, as previously described. The cells were initially incubated in serum-free media for 24 h. We used uncoated cell culture inserts in 6-well plates ([…]; Corning, USA). The upper chamber received 1.5 mL of serum-free medium, whereas the bottom chamber received 2 mL of medium containing 20% FBS. Cotton swabs were used to remove cells that remained in the top chamber after 24 h. The cells on the bottom surface of the membrane were fixed in 4% paraformaldehyde and stained with 0.5% crystal violet. The cells were imaged and counted using an optical microscope (Leica, DMI8).

Consider `F[P-](F)(F)(F)(F)F.O=c1cc[nH]c([S][Ru+])n1.c1ccc(-c2ccccn2)nc1.c1ccc(P(c2ccccc2)c2ccccc2)cc1.c1ccc(P(c2ccccc2)c2ccccc2)cc1` [Complex 1, trans-[Ru(2TU)(PPh3)2(bipy)]PF6], for which, in data set [1], the “histopathological alterations of kidneys, livers, lungs” value is on record as “minor and/or reversible”; the “changes in body weight or organs (liver, kidney, lung, heart)” value was “No significant changes”; the “histopathological changes in the hearts” value is reported as “No significant changes”. Also, in the data set on HepG2 cells [2], the “induction of autophagy (p62/SQSTM1 expression)” value is reported as “none of them caused autophagy”. In the data set with HepG2 cells [3] (8 μM complex 1), the “level of phospho-NF-κB p65 (S529)” value was “reduced” and the “level of phospho-S6 (S235/S236)” value is “reduced”. In addition, in the data set with HepG2 cells [3], the “level of Akt1” value is “reduced”, the “level of phospho-4EBP1 (T36/T45)” value is on record as “not affected”, the “level of phospho-Akt (S473)” value was “reduced” and the “level of phospho-Akt (T308)” value was “not affected”. Moreover, in the data set on HepG2 cells [3], the “level of phospho-PI3K p85/p55 (T458/T199)” value is recorded as “not affected”, the “level of phospho-elF4E (S209)” value is “not affected” and the “level of phospho-mTOR (S2448)” value was “reduced”. In addition, in the data set with HepG2 cells [4], the “HepG2 cell migration, wound healing” value is on record as “reduced”. The molecule also yielded an IC50 in the data set on WT SV40 MEF of 5.4 µM. In addition, in the data set with BAD KO SV40 MEF, the “involvement of proapoptotic protein BAD in cell death” value was “independent of the protein BAD” and the 50% inhibitory concentration (IC50) worked out at 4.6 µM. In addition, the “cell size/granularity (FSC decrease, SSC increase)” value in the data set on HepG2 cells [5] is “caused cell shrinkage”. Moreover, the “motility, transwell cell migration” value in the data set on HepG2 cells [6] was “reduced motility”.

On to `Cc1cc(=O)nc([S][Ru+])[nH]1.F[P-](F)(F)(F)(F)F.c1ccc(-c2ccccn2)nc1.c1ccc(P(c2ccccc2)c2ccccc2)cc1.c1ccc(P(c2ccccc2)c2ccccc2)cc1` [Complex 2, trans-[Ru(6m2TU)(PPh3)2(bipy)]PF6], for which, in data set [1], the “histopathological alterations of kidneys, livers, lungs” value is listed as “minor and/or reversible”; the “changes in body weight or organs (liver, kidney, lung, heart)” value is on record as “No significant changes”; the “histopathological changes in the hearts” value was “No significant changes”. Moreover, the “induction of autophagy (p62/SQSTM1 expression)” value in the data set with HepG2 cells [2] is “none of them caused autophagy”. For the same molecule, in the data set on HepG2 cells [3], the “level of Akt1” value is “reduced”, the “level of phospho-4EBP1 (T36/T45)” value is “not affected”, the “level of phospho-Akt (S473)” value is on record as “reduced” and the “level of phospho-Akt (T308)” value was “not affected”. Besides, in the data set on HepG2 cells [3], the “level of phospho-PI3K p85/p55 (T458/T199)” value was “not affected”, the “level of phospho-elF4E (S209)” value is on record as “not affected” and the “level of phospho-mTOR (S2448)” value is recorded as “reduced”. For the same molecule, the “HepG2 cell migration, wound healing” value in the data set on HepG2 cells [4] is given as “reduced”. In the data set with WT SV40 MEF, this molecule yielded an IC50 of 5.1 µM. In the data set with BAD KO SV40 MEF, the “involvement of proapoptotic protein BAD in cell death” value is recorded as “independent of the protein BAD” and the IC50 came to 4.1 µM. The “cell size/granularity (FSC decrease, SSC increase)” value in the data set on HepG2 cells [5] is “caused cell shrinkage”. The “motility, transwell cell migration” value in the data set with HepG2 cells [6] was “reduced motility”.

Usually IC50 stands for the midpoint of a concentration-inhibition curve. High values mean lower potency, low ones higher potency.
